Data reported in patent US12083084B2, “Method for enhancing energy production and metabolism in cells” (REPLICON HEALTH OY, priority 2013, dated 2024).
Several values for one entry are separate records, joined by “and”; a condition that tells them apart may be missing. Equal values may be shown once. Entries after “also recorded” stand apart in the source; their conditions may differ.

Legend:
[1] = Plasma sample analyses on PYR, ALA, LAC and NO; format: in vivo, human
Method: As mentioned above also plasma samples were collected from S1 and S9, at 0 h and 1 h both in 12 h and 4.5 day test, i.e. 16 observations were gathered with either DGAcs or zero control situations. Additionally in statin group (S10 and S11) 2×2 measurements were done. Altogether there were 20 observations and, thus 10 differences between control and DGAcs administration can be calculated. Pyruvate concentrations were measured using Pyruvate Assay Kit from Sigma (MAK071 Sigma). Alanine concentrations were measured using Sigma Alanine Assay Kit (MAK001). Lactate concentrations were measured using Sigma Lactate Assay Kit (MAK064). And finally nitric oxide (NO) concentrations were measured using OxiSelect™ In Vitro Nitric Oxide (Nitrite/Nitrate) Assay Kit from Nordic Biosite Oy.

[2] = tested on: primary human hepatocytes; experiment: Cellular ROS detection (DCFDA) in primary human hepatocytes; format: cell-based; settings: for ROS production compared to 0 dose/control: donor four, High Medium, FIG. 5; for ROS compared to 0 dose/control (in words): moderate metabolic stress (1.5-2 h after change of medium)
Method: (§1) Primary human hepatocytes were purchased from Celsis In Vitro Technologies (1450 South Rolling Road Baltimore, MD 21227, USA). […] According to the information provided by the Celsis, hepatocytes from each donor should have at least 70% viability and more than 5 million viable cells. The medium for the culture of hepatocytes was provided by Celsis. They were InVitroGRO CP (for plating) medium (Z99029) and InVitroGRO HI (for incubation) medium (Z99009). Antibiotics (Torpedo Antibiotics Mix, Z990007) were also from Celsis. The thaw, plating and culture of cells were carried out according to the instruction provided by the Celsis In Vitro Technologies.
(§2) For the measurement of cell viability after treatment of test compound, CytoTox-One Homogeneous Membrane Integrity Assay kit (Promega, G7891) was used. The CytoTox-One Assay is a rapid fluorescent measure of the release of lactate dehydrogenase (LDH) from cells with a damaged membrane. The number of […] cells correlates to the fluorescence intensity determined by a fluorescence plate reader (Hidex Chameleon V multiplate reader, Hidex Oy, Turku, Finland) with excitation 544 nm and emission 590 nm. For the measurement of cellular reactive oxygen species (ROS), DCFDA Cellular ROS Detection Assay Kit from Abcam (ab113851) was used. Reactive oxygen species (ROS) assay kit (ab113851) uses the cell permeant reagent 2′,7′-dichlorofluorescein diacetate (DCFDA), a fluorogenic dye that measures hydroxyl, peroxyl and other ROS activity with the cell. The activity of ROS was measured by a fluorescence plate reader (Hidex) with excitation/emission wavelengths of 485 nm/535 nm.
(§3) The culture of primary hepatocytes was carried out based on the instructions provided by Celsis. After thawing, the cells were suspended in InVitroGRO CP medium. Thereafter the viability of cells was determined using the Trypan Blue exclusion method. Then the concentration of cells was adjusted using InVitroGRO CP medium, so about 30000-35000 cells/100 μl/well can be seeded in collagen I coated 96 well plate (BD, 734-0248).
(§4) After seeding, the cells were cultured overnight in the cell culture incubator (Sanyo MCO 18) at atmosphere of 95% air, 5% CO2 at 37° C. Thereafter, the culture medium for the cells was changed to InVitroGRO Hi (Hi Medium) containing test compound (D-glyceric acid calcium salt dehydrate) at the concentrations of 0, 0.2, 2 and 20 μg/ml (study 1, Table 1.1.1) and 0, 0.4, 2 and 10 μg/ml (study 2, Table 1.1.2).
In study 3 also LGA and HPA were tested and compared to DGA (see FIGS. 11c and 11d) with same doses as in study 2.
In studies 2-4 additional diet with 0.75 mM of palmitic acid (“fatty acid diet”) was added to Hi Medium. Hi Medium in itself contains ample amounts of glucose and fructose and other necessary ingredients for keeping viability of the cell culture at optimal level.
(§5) After 24 h (in study 1) and 20 h (in studies 2-4) incubation medium was renewed. Second renewal of the incubation medium occurred at 48 h in study 1 and at 40 h in other studies. ROS and LDH were measured after 1.5-2 hours after last change of the medium, i.e. in a situation with moderate metabolic stress.
The measurement of cellular reactive oxygen species (ROS) was carried out according to the instruction of Abcam (ab113851). At the end of treatment time point, culture medium was taken away for leaked LDH measurement and cells were washed with 100 μl/well PBS once. Thereafter 100 μl/well of DCDA mix was added and incubated for 45 min at 37° C. in the dark. Then cells were washed once with 1× buffer solution. The fluorescence signal was measured at an excitation wavelength of 485 nm and emission wavelength of 535 nm using the Hidex Chameleon V multiplate reader (Hidex Oy, Turku, Finland).
For the LDH and ROS assays, individual values of each measurement were stored and average value of fluorescence signals of various repeats of each treatment at studied time point were calculated and compared. […]

[3] = tested on: primary human hepatocytes; experiment: Cell viability by LDH release (CytoTox-One) in primary human hepatocytes; format: cell-based
Method: as §1, §2, §3, §4, §5
The measurement of LDH from medium (leaked LDH) and from cell and medium (total LDH) was carried out according to the instruction provided by the Promega (G7891). The plate was incubated at an incubator to achieve a temperature of 22° C. Thereafter, equal volume of CytoTox-ONE Reagent to cell culture medium (100 μl) was added to each well and mix for 30 seconds. Then they were incubated for 10 min at 22° C., and then 50 μl of Stop Solution was added to each well. After gentle mixing, the fluorescence signal was measured at an excitation wavelength of 560 nm and emission wavelength of 590 nm using the Hidex Chameleon V multiplate reader (Hidex Oy, Turku, Finland).
For the total LDH measurement, all the steps are same except a 2 μl of Lysis Solution (per 100 μl original volume) will be added to the each well to lyse the cells before CytoTox-ONE Reagents will be added.
For the LDH and ROS assays, individual values of each measurement were stored and average value of fluorescence signals of various repeats of each treatment at studied time point were calculated and compared. […] Viability (LDH) measurements contained 4-6 repeats depending on the study. […]

[4] = average of measurements 1-10, vs zero control
[5] = healthy volunteer group only, S1 and S9

## O=C(O)[C@H](O)CO [DGA, D-glyceric acid]
[1]; healthy individuals
  decline in NO: 13%
[1]; summary statement, humans, Example 2.3.3
  increase of plasma/blood pyruvate levels: 20-25% and 25%
[2]; 1.5 h after new medium (moderate metabolic stress), 1.4 μM
  ROS production compared to 0 dose/control: Significant efficacy
[2]; 1.5 h after new medium, 0.14 μM
  ROS production compared to 0 dose/control: no effect
[2]; 1.5 h after new medium, 14 μM (2 μg/ml)
  ROS production compared to 0 dose/control: Biggest ROS scavenging effect
[2]; donor one, Hi Medium+Palmitic acid, FIG. 11a
  decline of ROS compared to control: same decline
[2]; primary human hepatocytes, metabolic stress situation
  amount of ROSs decreased by: 15-40%
[2]; primary human hepatocytes
  ROS compared to 0 dose/control (in words): decreases ROS
[2]; study 4, donors alpha (FIG. 5) and (FIG. 6), 14 μM
  ROS scavenging in equimolar comparison against vitamin E, glutathione, vitamin C (and morin dehydrate): superior or at least as good ROS scavenger; also recorded: superior antioxidant
[3]; donor alpha, 0.4 DGA dose, Hi Medium+palmitic acid, FIG. 10c
  viability compared to 0 dose: statistically significant decrease in viability; also recorded: decline is statistically significant
[3]; donor alpha, FIG. 10c
  hepatocytes viability increased in some cases by: 40-60%
[3]; primary human hepatocytes
  viability of cells increased on average by: 5-10%

## O.O.O=C([O-])[C@H](O)CO.O=C([O-])[C@H](O)CO.[Ca+2] [DGAcs, D-glyceric acid, calcium salt dehydrate]
[1]; S1 and S9, 1 hour after administering 75 000 mg of glucose
  increase of plasma pyruvate: ~20%
[1]; all measurements, vs control
  decline in NO: approximately 10%
[1]; [4]
  Average Change of the Concentration, plasma Alanine: 3.5%
  Average Change of the Concentration, plasma Nitric Oxide: −9.9%
  Average Change of the Concentration, plasma Pyruvate: 25.9%
[1]; average of measurements, vs zero control
  Average Change of the Concentration, plasma Lactate: −31.9%
[1]; average, subjects with BMI < 25, vs zero control
  Average Change of the Concentration, plasma Nitric Oxide (BMI < 25): −13.4%
[1]; [5]
  decrease of plasma lactate: ~38%
  increase of plasma pyruvate: approximately 25%
[1]; summary statement, humans, compared to control, Example 2.3.3
  decrease of plasma/blood lactate: 31.9% and 30%
[2]; primary human hepatocytes
  ROS compared to 0 dose/control (in words): decrease ROS levels significantly; also recorded: reduced ROS
[3]; primary human hepatocytes, standard treatment, moderate metabolic stress
  viability compared to 0 dose (in words): modestly increase the viability
